The text below walks through data of patent US20150060744A1, “[…] BLUE DYE COMPOUND, BLUE RESIN COMPOSITION FOR COLOR FILTER CONTAINING SAME AND COLOR FILTER USING SAME” (KYUNG SYNTHETIC CO., LTD., priority 2012, published 2015).

Bounds are passed on as bounds.

A short description of this data set: Solubility of blue dye compounds in PGMEA and cyclohexanone. In kind it is physicochemical. Particulars: for Solubility in PGMEA: solvent PGMEA (propylene glycol monomethyl ether acetate); for Solubility in cyclohexanone: solvent cyclohexanone.

As for `C=C(C)C(=O)OCCN(CC)c1ccc(C(=C2C=CC(=[N+](CC)CCOC(=O)C(=C)C)C=C2)c2ccc(Nc3ccccc3)c3ccccc23)cc1` [Comp. Ex. 1], the “Solubility in PGMEA” value is recorded as <1% and the Solubility in cyclohexanone is listed as <3%.
Taken in the same sequence, the figures for `C=C(C)C(=O)OCCN(CC)c1ccc(C(=C2C=CC(=[N+](CC)CCOC(=O)C(=C)C)C=C2)c2ccc(Nc3ccccc3)c3ccccc23)cc1` [Syn. Ex. 1] were >10% and >10%.
Taken in the same sequence, the figures for `CN(C)c1ccc(C(=C2C=CC(=[N+](C)C)C=C2)c2ccc(Nc3ccccc3)c3ccccc23)cc1` [compound 2] were <1% and <3%.
